Patent publication US20070031480A1, “Enhanced delivery of sphingolipids” (priority 2003, published 2007)

Experiments:
[1] = tested on: J774 murine macrophage cells; assay: MTT cytotoxicity assay of free ceramide and liposomes, 72 hours; assay type: cell-based; details: liposome concentration corrected for ceramide content
Method: (§1) Human estrogen receptor negative MDA435/LCC6 wild-type and MDR-1 gene transfected MDA435/LCC6^MDR1 multidrug resistant breast cancer cell lines were obtained from Dr. Robert Clark, Georgetown University, Washington, D.C. J774 murine macrophage cells were obtained from ATCC (Rockville, Md.). All cells were grown as adherent monolayer cultures in 25-cm^2 Falcon flasks in DMEM supplemented with 10% fetal bovine serum and 1% L-glutamine. Cells were maintained at 37° C. in humidified air with 5% CO2. Cells were sub-cultured weekly using 0.25% trypsin with 1 mM EDTA (MDA435/LCC6) or gentle cell scraping (J774).
(§2) Cell suspensions were diluted 1:1 with trypan blue, counted with a hemocytometer and seeded into 96-well microtitre plates at […] in 0.2 ml complete medium. […] After 72 hours the cell viability was assessed using a conventional 3-(4,5-dimethylthiazol-2-yl)-2,5-diphenyl tetrazolium bromide (MTT) dye reduction assay. […] The formazan dye was measured spectrophotometrically using a Dynex plate reader (570 nm). […] The cytotoxic effect of each treatment was expressed as percent cell viability relative to untreated control cells (% control) and is defined as: [(Abs570 treated cells)/( Abs570 control cells)]×100.
The inventors next determined whether the stable formulation of C16-ceramide into CHEMS liposomes translated into enhanced cytotoxicity in vitro. […]

[2] = tested on: MDA435/LCC6 wild-type and MDR-1 gene transfected MDA435/LCC6MDR1 breast cancer cells; assay: MTT cytotoxicity assay of free ceramides, 72 hours; assay type: cell-based, human; details: free ceramide, wild-type and MDR1 MDA435/LCC6 cells, not separated
Method: as §1
as §2, with “medium. The perimeter wells were not used and contained 0.2 ml sterile water.” for “medium.”, “cells)]×100. […]” for “cells)]×100.”

Structure (SMILES)	IC50 [1]	IC50 [2]
CCCCCCCCCCCCC/C=C/[C@@H](O)[C@H](CO)NC(=O)CCCCC [C6-ceramide]	14.4 µM	–
CCCCCCCCCCCCC/C=C/[C@@H](O)[C@H](CO)NC(=O)CCCCCCCCC [C10-ceramide]	–	~45 µM
CCCCCCCCCCCCC/C=C/[C@@H](O)[C@H](CO)NC(=O)CCCCCCCCCCCCCCC [C16-ceramide]	> 100 µM	–
